This assay deals with human activated kallikrein enzyme (Homo sapiens (Human), UniProt P03952). Nature of the assay: Inhibition of human activated kallikrein enzyme, fluorogenic peptide substrate assay (two formats). The settings on record: Table 2; column head prints nM, ranges defined in μM; read-out: pKal EC50. The assay is classed as biochemical. The protocol:
The example compounds were evaluated for inhibition of the human activated kallikrein enzyme in two formats of an assay employing a fluorogenic peptide substrate. In one assay format, the concentrations of reagents were as follows: 20 mM Tris pH 7.5, 1 mM EDTA, 150 mM sodium chloride, 0.1% PEG-400, 0.1% Triton X-100, 500 pM activated kallikrein enzyme, 300 uM Pro-Phe-Arg-7-amido-4-methylcoumarin substrate. Prior to reaction initiation with substrate, enzyme and inhibitors were preincubated for 30 min at room temperature. After initiation with substrate, reactions were incubated for 10 min at room temperature and fluorescence emission at 460 nm from 380 nm excitation measured with a microplate reader. In another assay format, the concentrations of reagents were as follows: 20 mM Tris pH 7.5, 1 mM EDTA, 150 mM sodium chloride, 0.1% PEG-400, 0.1% Triton X-100, 5 pM activated kallikrein enzyme, 300 uM Pro-Phe-Arg-7-amido-4-methylcoumarin substrate. Prior to reaction initiation with substrate, enzyme and inhibitors were preincubated for 30 min at room temperature. After initiation with substrate, reactions were incubated for 18 hr at room temperature and fluorescence emission at 460 nm from 380 nm excitation measured with a microplate reader.

human activated kallikrein enzyme, sequence (P03952 391-638): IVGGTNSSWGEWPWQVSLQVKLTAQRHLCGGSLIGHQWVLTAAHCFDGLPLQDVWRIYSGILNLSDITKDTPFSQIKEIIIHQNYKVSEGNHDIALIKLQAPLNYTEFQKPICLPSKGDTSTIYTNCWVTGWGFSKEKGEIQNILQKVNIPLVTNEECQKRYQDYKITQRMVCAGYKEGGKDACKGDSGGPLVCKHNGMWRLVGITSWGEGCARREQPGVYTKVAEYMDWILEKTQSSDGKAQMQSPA
human activated kallikrein enzyme, sequence (P03952 20-390 partner): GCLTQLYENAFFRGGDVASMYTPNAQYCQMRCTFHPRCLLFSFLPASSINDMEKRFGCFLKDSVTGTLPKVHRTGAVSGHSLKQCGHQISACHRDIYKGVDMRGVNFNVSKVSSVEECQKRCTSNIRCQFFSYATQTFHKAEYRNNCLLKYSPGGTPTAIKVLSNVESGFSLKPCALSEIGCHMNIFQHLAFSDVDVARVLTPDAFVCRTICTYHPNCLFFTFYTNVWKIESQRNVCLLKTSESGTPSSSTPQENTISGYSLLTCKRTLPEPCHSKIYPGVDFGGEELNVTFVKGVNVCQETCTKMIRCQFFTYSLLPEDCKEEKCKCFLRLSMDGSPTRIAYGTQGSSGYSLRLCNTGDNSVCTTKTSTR

Consider `CNC(=O)[C@H](CCCCNC(=N)N)NC(=O)c1csc([C@@H]2C[C@@H](N)CN2C(=O)c2ccccc2)n1` [Compound 15, 2-((2S,4R)-4-amino-1-benzoylpyrrolidin-2-yl)-N—((S)-6-guanidino-1-(methylamino)-1-oxohexan-2-yl)thiazole-4-carboxamide], for which the 50% effective concentration (EC50) was greater than 9900 nM.
`CNC(=O)[C@H](CCCCNC(=N)N)NC(=O)c1csc([C@@H]2C[C@@H](N)CN2C(=O)c2ccc3c(Cl)csc3c2)n1` [Compound 43, 2-((2S,4R)-4-amino-1-(3-chlorobenzo[b]thiophene-6-carbonyl)pyrrolidin-2-yl)-N—((S)-6-guanidino-1-(methylamino)-1-oxohexan-2-yl)thiazole-4-carboxamide]: the EC50 lay in the range of 5000 to 9900 nM.
The result for `CNC(=O)[C@H](CCCCNC(=N)N)NC(=O)c1csc([C@@H]2C[C@@H](N)CN2C(=O)c2cc3cc(Cl)c(Cl)cc3s2)n1` [Compound 61, 2-((2S,4R)-4-amino-1-(5,6-dichlorobenzo[b]thiophene-2-carbonyl)pyrrolidin-2-yl)-N—((S)-6-guanidino-1-(methylamino)-1-oxohexan-2-yl)thiazole-4-carboxamide] reads 100 to 1000 nM; that for `CNC(=O)[C@H](CCCCNC(=N)N)NC(=O)c1csc([C@@H]2C[C@@H](N)CN2C(=O)c2cn3cc(C(F)(F)F)ccc3n2)n1` [Compound 19, 2-((2S,4R)-4-amino-1-(6-(trifluoromethyl)imidazo[1,2-a]pyridine-2-carbonyl)pyrrolidin-2-yl)-N—((S)-6-guanidino-1-(methylamino)-1-oxohexan-2-yl)thiazole-4-carboxamide], no more than 100 nM; that for `CNC(=O)[C@H](CCCCNC(=N)N)NC(=O)c1csc([C@H]2C[C@@H](N)CN2C(=O)c2cn3cc(Cl)ccc3n2)n1` [Compound 1, 2-((2R,4R)-4-amino-1-(6-chloroimidazo[1,2-a]pyridine-2-carbonyl)pyrrolidin-2-yl)-N—((S)-6-guanidino-1-(methylamino)-1-oxohexan-2-yl)thiazole-4-carboxamide], 1000 to 5000 nM.
To `Cc1cc(N)nc(C)c1CNC(=O)c1csc([C@@H]2C[C@@H](N)CN2C(=O)c2cn3cc(Cl)ccc3n2)n1` [Compound 48, 2-((2S,4R)-4-amino-1-(6-chloroimidazo[1,2-a]pyridine-2-carbonyl)pyrrolidin-2-yl)-N-((6-amino-2,4-dimethylpyridin-3-yl)methyl)thiazole-4-carboxamide] belongs 100 to 1000 nM; to `CNC(=O)[C@H](CCCCNC(=N)N)NC(=O)c1csc([C@H]2CCCN2C(=O)c2cn3cc(Cl)ccc3n2)n1` [Compound 3, 2-((R)-1-(6-Chloroimidazo[1,2-a]pyridine-2-carbonyl)pyrrolidin-2-yl)-N—((S)-6-guanidino-1-(methylamino)-1-oxohexan-2-yl)thiazole-4-carboxamide], greater than 9900 nM; to `CNC(=O)[C@H](CCCCNC(C)=O)NC(=O)c1csc([C@@H]2C[C@@H](N)CN2C(=O)c2cn3cc(Cl)ccc3n2)n1` [Compound 26, N—((S)-6-acetamido-1-(methylamino)-1-oxohexan-2-yl)-2-((2S,4R)-4-amino-1-(6-chloroimidazo[1,2-a]pyridine-2-carbonyl)pyrrolidin-2-yl)thiazole-4-carboxamide], greater than 9900 nM.
To `CNC(=O)[C@H](CCCNC(=N)N)NC(=O)c1csc([C@@H]2C[C@@H](N)CN2C(=O)c2cn3cc(Cl)ccc3n2)n1` [Compound 28, 2-((2S,4R)-4-amino-1-(6-chloroimidazo[1,2-a]pyridine-2-carbonyl)pyrrolidin-2-yl)-N—((S)-5-guanidino-1-(methylamino)-1-oxopentan-2-yl)thiazole-4-carboxamide] belongs 5000 to 9900 nM; to `CNC(=O)[C@@H](CCCCNC(=N)N)NC(=O)c1csc([C@@H]2CCCN2C(=O)c2cn3cc(Cl)ccc3n2)n1` [Compound 34, 2-((S)-1-(6-Chloroimidazo[1,2-a]pyridine-2-carbonyl)pyrrolidin-2-yl)-N—((R)-6-guanidino-1-(methylamino)-1-oxohexan-2-yl)thiazole-4-carboxamide], greater than 9900 nM.
As to `CNC(=O)[C@H](CCCCNC(=N)N)NC(=O)c1csc([C@H]2C[C@H](O)CN2C(=O)c2cn3cc(Cl)ccc3n2)n1` [Compound 7, 2-((2R,4S)-1-(6-Chloroimidazo[1,2-a]pyridine-2-carbonyl)-4-hydroxypyrrolidin-2-yl)-N—((S)-6-guanidino-1-(methylamino)-1-oxohexan-2-yl)thiazole-4-carboxamide], the EC50 is greater than 9900 nM.
The result for `CNC(=O)[C@H](CCCCNC(=N)N)NC(=O)c1csc([C@H]2C[C@@H](NC(C)=O)CN2C(=O)c2cn3cc(Cl)ccc3n2)n1` [Compound 5, 2-((2R,4R)-4-acetamido-1-(6-chloroimidazo[1,2-a]pyridine-2-carbonyl)pyrrolidin-2-yl)-N—((S)-6-guanidino-1-(methylamino)-1-oxohexan-2-yl)thiazole-4-carboxamide] reads greater than 9900 nM; that for `CNC(=O)[C@@H](CCCCNC(=N)N)NC(=O)c1csc([C@H]2C[C@H](O)CN2C(=O)c2cn3cc(Cl)ccc3n2)n1` [Compound 8, 2-((2R,4S)-1-(6-Chloroimidazo[,1,2-a]pyridine-2-carbonyl)-4-hydroxypyrrolidin-2-yl)-N—((R)-6-guanidino-1-(methylamino)-1-oxohexan-2-yl)thiazole-4-carboxamide], greater than 9900 nM.
Regarding `N[C@@H]1C[C@@H](c2nc(C(=O)NCc3n[nH]c4ccc(Cl)cc34)cs2)N(C(=O)c2cn3cc(Cl)ccc3n2)C1` [Compound 58, 2-((2S,4R)-4-amino-1-(6-chloroimidazo[1,2-a]pyridine-2-carbonyl)pyrrolidin-2-yl)-N-((5-chloro-1H-indazol-3-yl)methyl)thiazole-4-carboxamide], the half-maximal effective concentration (EC50) was 5000 to 9900 nM.
The result for `CNC(=O)[C@@H](CCCCNC(=N)N)NC(=O)c1csc([C@H]2C[C@@H](N)CN2C(=O)c2cn3cc(Cl)ccc3n2)n1` [Compound 2, 2-((2R,4R)-4-amino-1-(6-chloroimidazo[1,2-a]pyridine-2-carbonyl)pyrrolidin-2-yl)-N—((R)-6-guanidino-1-(methylamino)-1-oxohexan-2-yl)thiazole-4-carboxamide] reads greater than 9900 nM; that for `CNC(=O)[C@H](CCCCNC(=N)N)NC(=O)c1csc([C@H]2C[C@H](N)CN2C(=O)c2cn3cc(Cl)ccc3n2)n1` [Compound 6, 2-((2R,4S)-4-amino-1-(6-chloroimidazo[1,2-a]pyridine-2-carbonyl)pyrrolidin-2-yl)-N—((S)-6-guanidino-1-(methylamino)-1-oxohexan-2-yl)thiazole-4-carboxamide], 1000 to 5000 nM; that for `CNC(=O)[C@H](CCCCNC(=N)N)NC(=O)c1csc([C@@H]2C[C@@H](N)CN2C(=O)C(C)C)n1` [Compound 18, 2-((2S,4R)-4-amino-1-isobutyrylpyrrolidin-2-yl)-N—((S)-6-guanidino-1-(methylamino)-1-oxohexan-2-yl)thiazole-4-carboxamide], greater than 9900 nM.

The values are drawn from patent US11168083B2, “Inhibitors of Plasma Kallikrein and uses thereof” (Takeda Pharmaceutical Company Limited, priority 2017, dated 2021).
